{
  "source": "patent US8188074B2",
  "about": "(priority 2001, dated 2012)",
  "key": {"[1]": {"tested_on": "S. aureus", "conditions": "10 μM, laser light (665 nm) 0.1 W", "protocol": "(§2) Stock solutions of the photosensitisers were made up to 5 mM in dimethylsulfoxide (DMSO). The 5 mM stock was further diluted in DMSO to a working concentration of 1 mM. All photosensitisers were stored in foil covered vials at room temperature until required.\n(§3) The microorganisms were grown until in the mid-logarithmic phase and then harvested and resuspended.\n(§4) The log or stationary phase cells were collected by centrifugation and washed twice in 0.1 M potassium phosphate buffer (pH 7.0). Following washing, the cells were resuspended in the same buffer to an absorbance of 0.87 at 650 nm.\n(§5) 25 ml of the prepared cell suspension was incubated with 0.25 mls of a 1 mM stock solution of photosensitiser (giving a final concentration of 10 μM) in a 250 ml sterile foil covered conical flask. The suspension was incubated for 30 minutes in the dark in a 37° C. shaking incubator at 250 rpm.\n(§6) After incubation with 10 μM phenothiazinium compound, 10 ml of the bacterial culture was aseptically transferred to a sterile cell. This consisted of a sealed vial with a sealed capillary tube inserted, into which the optical fibre could be placed. […]\n(§7) 50 ml of the illuminated and non-illuminated samples of the suspension were removed and diluted in 0.1 M pH 7.0 potassium phosphate buffer. […] Cell inactivation was then measured."}, "[2]": {"tested_on": "E. coli"}, "[3]": {"tested_on": "C. albicans", "experiment": "Photoinactivation of C. albicans", "type": "cell-based, Candida albicans", "conditions": "10 μM; laser light at 0.1 W", "experimental": "(§1) Cell inactivation was then measured."}, "[4]": {"tested_on": "E. coli", "experiment": "Photoinactivation of E. coli", "type": "cell-based", "conditions": "for log change in CFU/ml / percentage cell survival / log change CFU/ml: E. coli; for log change CFU/ml: laser light", "experimental": "as §1"}, "[5]": {"tested_on": "P. aeruginosa", "experiment": "Photoinactivation of P. aeruginosa", "conditions": "10 μM, laser light (665 nm) 0.1 W", "protocol": "as §2, §3, §4, §5, §6, §7"}, "[6]": {"experiment": "Octanol-buffer partition coefficient", "text": "The octanol buffer partition coefficient (p) determines the lipophilicity of the drug."}, "[7]": {"tested_on": "RIF-1 murine fibrosarcoma cells", "experiment": "Cellular uptake in RIF-1 cells", "type": "cell-based", "conditions": "2 h incubation, solubilised in 2% SDS, fluorescence"}, "[8]": {"conditions": "patients after administration; cited from earlier work"}, "[9]": {"conditions": "30 min with 10 μM, halogen lamp 60 minutes at 1.3 mW/cm^2"}, "[10]": {"conditions": "octanol-buffer partition coefficient"}},
  "note": "Read-outs that look alike come from different tables or passages of the source.",
  "data": [
    {"molecule": "3,7-(tetra-n-butylamino)-phenothiazin-5-ium [Compound 2]", "values": [
      {"measurement": "bacteria inactivated", "setting": "[1]; 1 minute", "result": "~99", "unit": "%"},
      {"measurement": "cell kill", "setting": "[1]; 10 minutes", "result": "~5", "unit": "logs"},
      {"measurement": "growth of an E. coli culture in the dark compared to control, FIG. 11", "setting": "[2]; 10 μM in growth media, dark, 37° C., 6 hours, turbidity at 550 nm", "result": "greatest inhibition"},
      {"measurement": "growth of E. coli after addition of photosensitiser at 3 hours, in the dark, FIG. 12", "setting": "[2]; 10 μM, dark", "result": "continuing growth"},
      {"measurement": "growth of E. coli after addition of photosensitiser at 3 hours, in the light, FIG. 12", "setting": "[2]; 10 μM, light", "result": "complete elimination of growth"},
      {"measurement": "killing of Candida albicans in the light, FIG. 16", "setting": "[3]", "result": "readily destroyed"},
      {"measurement": "log change in CFU/ml of washed versus unwashed E. coli cells, FIG. 10", "setting": "[4]; 10 μM, washed twice, laser light (665 nm) 0.1 W for 4 minutes", "result": "little difference"},
      {"measurement": "log change in CFU/ml", "setting": "[4]; [9]", "result": 5.1, "unit": "log10"},
      {"measurement": "percentage cell survival", "setting": "[4]; [9]", "result": 0.001, "unit": "%"},
      {"measurement": "log change in CFU/ml", "setting": "[4]; 30 min with 10 μM, illuminated 15 minutes at 1.3 mW/cm^2", "result": 4.59, "unit": "log10 units"},
      {"measurement": "log change in CFU/ml", "setting": "[4]; 30 min with 50 μM, illuminated 15 minutes at 1.3 mW/cm^2", "result": 2.15, "unit": "units"},
      {"measurement": "log change CFU/ml", "setting": "[4]; 14 minute illumination at 0.1 W", "result": 5.69, "unit": "log"},
      {"measurement": "log change CFU/ml", "setting": "[4]; 20 minute illumination at 0.1 W, number of CFU too small to be statistically reliable", "result": "~8.5", "unit": "units"},
      {"measurement": "antibacterial activity, E. coli resuspended in nutrient medium, FIG. 7", "setting": "[4]; nutrient medium, 10 μM, 60 minutes at 1.3 mW/cm^2", "result": "highest antibacterial activity"},
      {"measurement": "cell kill", "setting": "[5]; 2 minutes", "result": "greater than 99%"},
      {"measurement": "cell kill", "setting": "[5]; 10 minutes", "result": "~4", "unit": "logs"}
    ]},
    {"molecule": "3-(N,N-diethanolamino)-7-(N,N-dipentylamino)-phenothiazin-5-ium iodide [Compound 28]", "values": [
      {"measurement": "Log P", "setting": "[6]", "result": "+1.1"}
    ]},
    {"molecule": "CCCCCCN(CCCCCC)c1ccc2nc3ccc(N(CCCCCC)CCCCCC)cc3[s+]c2c1.[Br-]", "note": "[Compound 4]", "values": [
      {"measurement": "Uptake at PDT LD50", "setting": "[7]", "result": 1.6, "unit": "nmol/mg protein"},
      {"measurement": "Log P", "setting": "[6]; [10]", "result": "+1.3"},
      {"measurement": "log change in CFU/ml", "setting": "[4]; [9]", "result": 0.19, "unit": "log10"},
      {"measurement": "percentage cell survival", "setting": "[4]; [9]", "result": 65.3, "unit": "%"}
    ]},
    {"molecule": "CCN(CC)c1ccc2nc3ccc(N(CC)CC)cc3[s+]c2c1.[Cl-]", "note": "[Compound 6, ethylene blue, reference compound]", "values": [
      {"measurement": "Uptake at PDT LD50", "setting": "[7]", "result": 2.9, "unit": "nmol/mg protein"},
      {"measurement": "Log P", "setting": "[6]; [10]", "result": "+0.2"}
    ]},
    {"molecule": "CCCCN(CCCC)c1ccc2nc3ccc(N4CCOCC4)cc3[s+]c2c1.[I-]", "note": "[Compound 24]", "values": [
      {"measurement": "Log P", "setting": "[6]; [10]", "result": "+1.0"}
    ]},
    {"molecule": "Oc1cccc(-c2c3nc(c(-c4cccc(O)c4)c4ccc([nH]4)c(-c4cccc(O)c4)c4nc(c(-c5cccc(O)c5)c5ccc2[nH]5)CC4)C=C3)c1", "note": "[Foscan]", "values": [
      {"measurement": "period of sensitivity to light", "setting": "[8]", "result": "approximately 15 days"}
    ]}
  ]
}
